One data set concerns Rattus norvegicus. The data set can be described thus: Anti-inflammatory activity against carrageenan-induced paw edema in rat assessed as inhibition of paw edema at 50 mg/kg, po relative to control. The format is functional. Set-up: scale not given: the % may be the effect or the level left.
Data set [1] is described as follows: Antiproliferative activity against mouse BaF3/TRP-Met cells.
The test system of the next data set is Chikungunya virus. Nature of the data set: Antiviral activity against Chikungunya virus infected in Vero E6 cells assessed as inhibition of virus-induced cytopathic effect incubated for 72 hrs by CellTiter Glo luminescence assay. Conditions: Vero C1008, 72 h. It is filed as functional, organism-based.
The subject of data set [2] is Pseudomonas aeruginosa. The data set can be described thus: Antibacterial activity against Pseudomonas aeruginosa assessed as zone of inhibition at 250 ug/ml by agar disc diffusion method. It is filed as functional. Conditions: read-out: IZ.
The test system of data set [3] is Bacillus subtilis. Nature of the data set: Antibacterial activity against Bacillus subtilis assessed as zone of inhibition at 200 ug/ml by agar disc diffusion method. The format is functional. Conditions: read-out: IZ.
The subject of data set [4] is Bacillus subtilis. Nature of the data set: Antibacterial activity against Bacillus subtilis assessed as zone of inhibition at 250 ug/ml by agar disc diffusion method. It is filed as functional. Conditions: read-out: IZ.
Data set [5] concerns Escherichia coli. The data set can be described thus: Antibacterial activity against Escherichia coli assessed as zone of inhibition at 150 ug/ml by agar disc diffusion method. The format is functional. Conditions: read-out: IZ.
For data set [6], the system named is Escherichia coli. Nature of the data set: Antibacterial activity against Escherichia coli assessed as zone of inhibition at 200 ug/ml by agar disc diffusion method. It is filed as functional. Particulars: read-out: IZ.
Data set [7] concerns Escherichia coli. The data set can be described thus: Antibacterial activity against Escherichia coli assessed as zone of inhibition at 250 ug/ml by agar disc diffusion method. It is filed as functional. Conditions: read-out: IZ.
Data set [8] relates to Pseudomonas aeruginosa. Nature of the data set: Antibacterial activity against Pseudomonas aeruginosa assessed as zone of inhibition at 200 ug/ml by agar disc diffusion method. The format is functional. Particulars: read-out: IZ.
Data set [9] has as its system Bacillus subtilis. The data set can be described thus: Antibacterial activity against Bacillus subtilis assessed as zone of inhibition at 150 ug/ml by agar disc diffusion method. Particulars: read-out: IZ. It is filed as functional.
In data set [10] the test system is Staphylococcus aureus. Nature of the data set: Antibacterial activity against Staphylococcus aureus assessed as zone of inhibition at 250 ug/ml by agar disc diffusion method. The format is functional. Conditions: read-out: IZ.
Data set [11] has as its system Pseudomonas aeruginosa. The data set can be described thus: Antibacterial activity against Pseudomonas aeruginosa assessed as zone of inhibition at 150 ug/ml by agar disc diffusion method. The format is functional. Conditions: read-out: IZ.
Data set [12] deals with Staphylococcus aureus. The data set can be described thus: Antibacterial activity against Staphylococcus aureus assessed as zone of inhibition at 200 ug/ml by agar disc diffusion method. It is filed as functional. Conditions: read-out: IZ.
The subject of data set [13] is Staphylococcus aureus. The data set can be described thus: Antibacterial activity against Staphylococcus aureus assessed as zone of inhibition at 150 ug/ml by agar disc diffusion method. The format is functional. Particulars: read-out: IZ.
In the next data set the target is hERG (KCNH2) (Homo sapiens, UniProt Q12809). Nature of the data set: Inhibition of hERG potassium […] at 6.25 uM relative to control. It is filed as toxicity.
Chain of hERG (KCNH2) (Q12809 whole entry, the tested form may be a part): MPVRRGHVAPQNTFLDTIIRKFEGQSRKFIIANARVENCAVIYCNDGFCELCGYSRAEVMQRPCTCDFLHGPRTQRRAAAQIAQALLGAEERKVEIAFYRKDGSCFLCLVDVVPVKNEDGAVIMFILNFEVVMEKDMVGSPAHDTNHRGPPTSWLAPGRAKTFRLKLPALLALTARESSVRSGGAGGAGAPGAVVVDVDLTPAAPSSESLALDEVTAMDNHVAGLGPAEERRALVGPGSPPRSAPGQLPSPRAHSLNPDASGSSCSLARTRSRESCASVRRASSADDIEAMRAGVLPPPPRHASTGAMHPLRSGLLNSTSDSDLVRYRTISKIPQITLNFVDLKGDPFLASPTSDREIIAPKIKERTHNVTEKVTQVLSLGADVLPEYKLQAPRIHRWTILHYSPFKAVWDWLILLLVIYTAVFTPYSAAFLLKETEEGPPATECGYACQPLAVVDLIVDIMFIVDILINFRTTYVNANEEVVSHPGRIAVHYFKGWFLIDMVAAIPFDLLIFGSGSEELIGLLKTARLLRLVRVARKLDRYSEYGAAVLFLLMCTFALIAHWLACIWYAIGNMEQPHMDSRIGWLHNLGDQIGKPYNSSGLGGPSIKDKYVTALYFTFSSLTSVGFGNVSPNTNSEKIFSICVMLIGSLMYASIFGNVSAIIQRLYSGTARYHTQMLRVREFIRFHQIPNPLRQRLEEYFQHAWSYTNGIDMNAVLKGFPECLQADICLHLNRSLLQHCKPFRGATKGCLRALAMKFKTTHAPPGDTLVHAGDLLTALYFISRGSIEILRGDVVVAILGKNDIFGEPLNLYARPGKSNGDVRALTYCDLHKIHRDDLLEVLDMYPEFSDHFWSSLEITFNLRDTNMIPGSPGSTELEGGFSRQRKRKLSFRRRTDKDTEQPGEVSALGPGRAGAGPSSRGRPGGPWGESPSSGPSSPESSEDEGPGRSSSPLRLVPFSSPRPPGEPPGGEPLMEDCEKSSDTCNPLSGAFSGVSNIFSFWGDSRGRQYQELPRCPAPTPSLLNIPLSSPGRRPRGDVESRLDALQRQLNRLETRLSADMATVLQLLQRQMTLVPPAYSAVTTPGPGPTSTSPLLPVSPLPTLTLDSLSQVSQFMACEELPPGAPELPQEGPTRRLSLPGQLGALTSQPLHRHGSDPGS
For data set [14], the system named is Escherichia coli. The data set can be described thus: Antibacterial activity against Escherichia coli assessed as zone of inhibition at 35 ug/ml by agar well diffusion method. The format is functional. Conditions: read-out: IZ.
Data set [15] deals with Escherichia coli. The data set can be described thus: Antibacterial activity against Escherichia coli assessed as zone of inhibition at 25 ug/ml by agar well diffusion method. Conditions: read-out: IZ. The format is functional.
For data set [16], the system named is Staphylococcus aureus. Nature of the data set: Antibacterial activity against Staphylococcus aureus assessed as zone of inhibition at 35 ug/ml by agar well diffusion method. The format is functional. Conditions: read-out: IZ.
For data set [17], the system named is Escherichia coli. The data set can be described thus: Antibacterial activity against Escherichia coli assessed as zone of inhibition at 10 ug/ml by agar well diffusion method. The format is functional. Conditions: read-out: IZ.
The subject of data set [18] is Staphylococcus aureus. Nature of the data set: Antibacterial activity against Staphylococcus aureus assessed as zone of inhibition at 25 ug/ml by agar well diffusion method. It is filed as functional. Particulars: read-out: IZ.
The subject of data set [19] is Staphylococcus aureus. The data set can be described thus: Antibacterial activity against Staphylococcus aureus assessed as zone of inhibition at 10 ug/ml by agar well diffusion method. The format is functional. Particulars: read-out: IZ.
Data set [20] concerns Escherichia coli. The data set can be described thus: Antibacterial activity against Escherichia coli 209p assessed as reduction in bacterial growth by CLSI protocol based agar dilution method. The format is functional.
For data set [21], the system named is Staphylococcus aureus. The data set can be described thus: Antibacterial activity against Staphylococcus aureus assessed as reduction in bacterial growth by CLSI protocol based agar dilution method. It is filed as functional.
Data set [22] relates to Pseudomonas aeruginosa. The data set can be described thus: Antibacterial activity against Pseudomonas aeruginosa assessed as reduction in bacterial growth by CLSI protocol based agar dilution method. It is filed as functional.
The next data set relates to Shigella flexneri. Nature of the data set: Antibacterial activity against Shigella flexneri NIHJ assessed as reduction in bacterial growth by CLSI protocol based agar dilution method. It is filed as functional.
Data set [23] concerns the target Voltage-gated inwardly rectifying potassium channel KCNH2 (Homo sapiens, UniProt Q12809). The data set can be described thus: Inhibition of hERG. The format is toxicity.
For a further data set, the system named is Hepatitis C virus. The data set can be described thus: Antiviral activity against Hepatitis C virus genotype 2a infected in human Huh-7 cells assessed as reduction in viral infection. It is filed as functional, organism-based, Hepacivirus hominis.

In brackets after ≈: the same amount, converted by molar mass.

Chain of Voltage-gated inwardly rectifying potassium channel KCNH2 (Q12809 whole entry): as the sequence (Q12809 whole entry, the tested form may be a part) above

In the case of `CCn1cnc2c3cccnc3n(-c3ccccc3)c(=O)c21`, the Activity with Rattus norvegicus is given as 58.2%.

Turning to `Cn1cnc2c3cccnc3n(-c3ccccc3)c(=O)c21`, the Activity with Rattus norvegicus came to 40%.

As to `N[C@H]1CC[C@H](n2c(=O)n(Cc3ccc(Cl)c(Cl)c3)c3nc(Oc4ccc(C(=O)N5CCCCC5)cc4)c4cccnc4c32)CC1`, in [1], the IC50 is less than 1 µM.

`FC(F)(F)c1cc(C(F)(F)F)c2ccc3nc(-c4nnco4)cn3c2n1`: the EC50 with Chikungunya virus was 0.203 µM.

Turning to `O=[N+]([O-])c1cccc(-c2cc3cccnc3n3c2nc2ccc(O)cc23)c1`, the zone of inhibition at 250 µg/mL came out at 22 mm in the data set on Pseudomonas aeruginosa [2], 23 mm in the data set on Bacillus subtilis [4], 22 mm with Escherichia coli [7] and 22 mm in the data set on Staphylococcus aureus [10]. Further, the zone of inhibition at 200 µg/mL with Bacillus subtilis [3] amounted to 19 mm; in the data set on Escherichia coli [6] it was 22 mm; in the data set with Pseudomonas aeruginosa [8] it was 20 mm; in the data set on Staphylococcus aureus [12], 20 mm. Besides, the zone of inhibition at 150 µg/mL in the data set with Escherichia coli [5] stood at 17 mm; in the data set with Bacillus subtilis [9], 16 mm; in the data set with Pseudomonas aeruginosa [11] it was 17 mm; in the data set with Staphylococcus aureus [13] it was 18 mm.

At hERG (KCNH2), `Cc1cc(C)c2ccc3nc(-c4ccc(F)cc4)c(CN4CCCCC4)n3c2n1` yielded an inhibition at 6.25 µM of 11%.

As to `O=[N+]([O-])c1cccc(-c2cnc3c(-c4ccc(F)cc4Cl)cc4cccnc4n23)c1`, the zone of inhibition at 35 µg/mL in the data set on Escherichia coli [14] amounted to 25 mm; with Staphylococcus aureus [16] it was 24 mm. Moreover, the zone of inhibition at 25 µg/mL with Escherichia coli [15] and in the data set on Staphylococcus aureus [18] was 16 mm each time. Besides, the zone of inhibition at 10 µg/mL with Escherichia coli [17] and in the data set on Staphylococcus aureus [19] was 6 mm throughout.

Take `CCn1cnc2cc3c(=O)c(C(=O)O)cn(CC)c3nc21`: the MIC is 3.13 µg/mL (≈ 10.9 µM) with Escherichia coli [20], 25 µg/mL (≈ 87.3 µM) with Staphylococcus aureus [21], greater than 100 µg/mL in the data set with Pseudomonas aeruginosa [22] and 3.13 µg/mL (≈ 10.9 µM) in the data set with Shigella flexneri.

Turning to `COc1ccc(-c2nc3ccc4c(C)cc(C)nc4n3c2CN2CCC(C)CC2)cc1`, in [23], the IC50 is 1.12 µM.

Take `Cc1cccc(-c2cnc3ccc4c(C(F)(F)F)cc(C(F)(F)F)nc4n23)c1`: the EC50 in the data set with Hepatitis C virus amounted to 2.6 µM.

Consider `Cc1ccccc1-c1cnc2ccc3c(C(F)(F)F)cc(C(F)(F)F)nc3n12`, for which the EC50 in the data set on Hepatitis C virus amounted to 2.8 µM.

As to `FC(F)(F)c1cc(C(F)(F)F)c2ccc3ncc(-c4cncnc4)n3c2n1`, the EC50 in the data set with Hepatitis C virus is greater than 20 µM.

As to `Fc1ccc(-c2cc3cccnc3n3c(-c4ccc(Cl)cc4)cnc23)c(Cl)c1`, the zone of inhibition at 35 µg/mL was found to be 25 mm with Escherichia coli [14] and 24 mm with Staphylococcus aureus [16]. In addition, the zone of inhibition at 25 µg/mL in the data set on Escherichia coli [15] and with Staphylococcus aureus [18] was 16 mm each time. In addition, the zone of inhibition at 10 µg/mL in the data set with Escherichia coli [17] and with Staphylococcus aureus [19] was 6 mm in each case.

(Values after ChEMBL document CHEMBL6109108, “A comprehensive review of fused imidazonaphthyridine derivatives: Synthetic approaches and biological applications” (Bioorg Med Chem, 2025).)
